From PMC10515486, “Peptide Bispecifics Inhibiting HIV-1 Infection by an Orthogonal Chemical and Supramolecular Strategy” (Bioconjugate Chemistry, 2023)
pIC50: −log10 of the molar value. Non-standard residues stand in square brackets, D forms with d. Residues, ends and D or L forms follow the SMILES beside them. No end group written: not given here. *: point of attachment. X1 = O=C(CCCC[C@@H]1SC[C@@H]2NC(=O)N[C@@H]21)NCCOCCOCCOCCOCCOCCOCCOCCOCCOCCOCCOCCNC(=O)CCN1C(=O)CC(*)C1=O

Tests used:
R5-tropic HIV-1 = test: Replication kinetics in human PBMCs, R5-tropic HIV-1; assay type: cell-based; settings: activated PBMCs from three human donors; 1 μM compound, AMD3100 1 μM, MVC 50 nM; supernatants titrated on TZM-bl cells
Description: Figure 5 Antiviral activity of single- and multivalent VIR-102C9/EPI-X4 JM#173-C conjugates. Concentrations indicate the molarity of the tested biotin-conjugated peptides or of the SAv conjugates with four copies of mono- or bispecific peptides respectively. (A) TZM-bl cells were pretreated with the indicated amounts of the single or multivalent compound and infected with X4- or R5-tropic HIV-1. Three days post-infection, a β-galactosidase assay was performed. IC50 values are given in the SI (Table S2). (B) Human PBMCs were isolated, stimulated, and pretreated with 1 μM of the indicated single- or multivalent compound, Maraviroc (MVC/50 nM) or AMD3100 (1 μM). […] Infectious virus yield was determined by infection of TZM-bl reporter cells with PBMC culture supernatants obtained at the indicated day post-infection (dpi). […] They are assigned to (14) only because they sit in the plots with the purple curve, matched to the colour legend. / 14, IC50 (X4): small print, 0.026 could be 0.028 or 0.025 / 14, IC50 (R5): small print, 0.039 could be 0.038 or 0.089 / Substance label in the legend reads 'SAv-VIR-1029C-', but panel B prints 'SAv-VIR-102C9'. […]
Cell viability was determined by the Cell Titer-Glo 2.0 Cell Viability Assay according to the manufacturer’s instructions. […]
After 48 h, cell viability was assessed by measuring ATP levels in cells lysates with the commercially available Cell Titer-Glo kit. […]

R5-tropic HIV-1 NL4-3 = system: R5-tropic HIV-1 NL4-3
Source text: (§1) TZM-bl reporter cells were pretreated with increasing concentrations of the mono- and multivalent compounds and subsequently infected with the well-characterized X4-tropic HIV-1 NL4-3 molecular clone or an R5-tropic derivative thereof that differs in the V3 region of the viral envelope glycoprotein from the parental virus (Figure 5A).[39]
(§2) (A) TZM-bl cells were pretreated with the indicated amounts of the single or multivalent compound and infected with X4- or R5-tropic HIV-1. Three days post-infection, a β-galactosidase assay was performed. […] (B) Human PBMCs were isolated, stimulated, and pretreated with 1 μM of the indicated single- or multivalent compound, Maraviroc (MVC/50 nM) or AMD3100 (1 μM). The cells were infected with X4- or R5-tropic HIV-1. Infectious virus yield was determined by infection of TZM-bl reporter cells with PBMC culture supernatants obtained at the indicated day post-infection (dpi). […]
(§3) in supplemented RPMI-1640 and incubated with Human T-Activator CD3/CD28 […]
(§4) Virus stocks were generated by transient transfection of HEK293T cells using the calcium-phosphate precipitation method. One day before transfection, 0.8 x 10^6 HEK293T cells were seeded in 6 -well plates (Greiner Bio -one, Frickenhausen, Germany). At a confluence of 60-80% cells were used for transfection. For the […]

HIV-1 NL4-3 = test: TZM-bl infection with HIV-1 NL4-3 preincubated with carrier compounds; assay type: cell-based; settings: virus preincubated with increasing amounts of carrier; β-galactosidase 3 days p.i.; three biological replicates
Description: To determine the infectivity of virions produced in infected human |PBMCs, TZM-bl cells were seeded in 96 -well plates at a density of 10,000 cells/well and infected after overnight incubation with the supernatants collected from the PBMC cultures. Three days p.i., viral infectivity was determined using a galactosidase screen kit from Tropix as recommended by the manufacturer. β-Galactosidase activities were quantified as relative light units (RLU) per second with an Orion Microplate luminometer (Berthold) . […]
infected with HIV-1 NL4-3 that was preincubated with increasing amounts of the carrier compounds Avidin, Neutravidin or Streptavidin. Three days post infection , a β-galactosidase assay was performed.
Each dot represents three biological replicates ± SEM.
(1 picture or pasted object on this page, not shown here)

X4-tropic HIV-1 NL4-3 = settings: read-out: IC50 X4; TZM-bl cells pretreated, infected with X4-tropic HIV-1 NL4-3; β-galactosidase 3 days p.i.; molarity of biotin-conjugated peptide or of SAv construct (per construct); nonlinear regression
Source text: as §1, §2, §3, §4

wild-type HIV-1 NL4-3 = settings: Figure 2B
Source text: (B) Inhibition of wild-type HIV-1 NL4-3 by single-cysteine VIRIP derivatives.

X4-tropic HIV-1 = test: Replication kinetics in human PBMCs, X4-tropic HIV-1; assay type: cell-based; settings: activated PBMCs from three human donors; 1 μM compound, AMD3100 1 μM, MVC 50 nM; supernatants titrated on TZM-bl cells
Description: as §2

## Maraviroc
R5-tropic HIV-1
  replication of R5-tropic HIV-1 in PBMCs (infectious virus yield): prevented

## CC[C@@H](C)[C@@H](N)C(=O)N[C@@H](CC(C)C)C(=O)N[C@@H](CCCNC(=N)N)C(=O)N[C@@H](Cc1c[nH]c2ccccc12)C(=O)N[C@@H](CO)C(=O)N[C@@H](CCCNC(=N)N)C(=O)N[C@@H](CCCCN)C(=O)N[C@@H](CSC1CC(=O)N(CCC(=O)NCCOCCOCCOCCOCCOCCOCCOCCOCCOCCOCCOCCNC(=O)CCCC[C@@H]2SC[C@@H]3NC(=O)N[C@@H]32)C1=O)C(N)=O (stereo partly shown) [compound 6] (H-[dI]LRWSRKC(X1)-NH2; N-terminus and C-terminus assumed)
R5-tropic HIV-1 NL4-3; TZM-bl cells
  activity against the R5-tropic derivative (in words): inactive

## Streptavidin: tetrameric biotin-binding protein, carrier
HIV-1 NL4-3
  effect on HIV-1 infection efficiency: do not alter

## CC[C@H](C)[C@H](NC(=O)[C@H](CO)NC(=O)[C@H](CCSC)NC(=O)[C@@H]1CCCN1C(=O)[C@@H](NC(=O)[C@H](C)NC(=O)[C@H](CCC(=O)O)NC(=O)[C@@H](N)CC(C)C)[C@@H](C)CC)C(=O)N[C@@H](CSC1CC(=O)N(CCC(=O)NCCOCCOCCOCCOCCOCCOCCOCCOCCOCCOCCOCCNC(=O)CCCC[C@@H]2SC[C@@H]3NC(=O)N[C@@H]32)C1=O)C(=O)N1CCC[C@H]1C(=O)N[C@@H](CCC(=O)O)C(=O)N[C@H](C(=O)N[C@@H](Cc1ccccc1)C(=O)N[C@@H](Cc1ccccc1)C(=O)N[C@@H](CC(N)=O)C(=O)N[C@@H](CCCCN)C(=O)N1CCC[C@H]1C(=O)N[C@@H](Cc1ccccc1)C(=O)N[C@H](C(=O)N[C@@H](Cc1ccccc1)C(=O)O)C(C)C)C(C)C (stereo partly shown) [compound 5] (H-LEAIPMSIC(X1)PEVFFNKPFVF-OH; N-terminus and C-terminus assumed)
R5-tropic HIV-1 NL4-3; read-out: IC50 R5, TZM-bl cells pretreated, infected with R5-tropic HIV-1 NL4-3 derivative, β-galactosidase 3 days p.i., molarity of biotin-conjugated peptide or of SAv construct (per construct)
  pIC50: 5.92
X4-tropic HIV-1 NL4-3
  pIC50: 5.95

## LEAIPMSICPEVFFNKPFVF [VIR-102C9]
wild-type HIV-1 NL4-3
  pIC50: 6.70

## c1cc(CN2CCCNCCNCCCNCC2)ccc1CN1CCCNCCNCCCNCC1 [AMD3100]
X4-tropic HIV-1
  replication of X4-tropic HIV-1 in PBMCs (infectious virus yield): blocked
